How the values were obtained:
[1] = about 5 mg/kg intravenously injected; cited from earlier work
[2] = Liver lobe distribution after hepatic portal vein injection of methylene blue solution; format: in vivo, balb/c mice; conditions: about 24 hours
Experimental: After zoletil and rumpun were injected into the abdominal cavity of balb/c mice at a ratio of 9:1 to anesthetize them, a methylene blue solution was injected by hepatic portal vein […]. After waiting for about 24 hours for tissue fixation of the methylene blue solution, all liver lobes were isolated by sacrificing the mice. The isolated liver lobes were fixed with a 10% formalin solution, made into a paraffin block, and cut into a thickness of 5 μm to prepare a tissue section slide. Thereafter, paraffin was removed from the tissue section slide, the slide was rehydrated, and then the tissue section was stained with a Harris hematoxylin solution and an eosin solution, and observed under an optical microscope.

Row | SMILES | time glycyrrhizin remains in the body [1] | distribution of methylene blue solution among liver lobes (image J) [2]
1 | CC1(C)[C@@H](O[C@H]2O[C@H](C(=O)O)[C@@H](O)[C@H](O)[C@H]2O[C@@H]2O[C@H](C(=O)O)[C@@H](O)[C@H](O)[C@H]2O)CC[C@]2(C)[C@H]3C(=O)C=C4[C@@H]5C[C@@](C)(C(=O)O)CC[C@]5(C)CC[C@@]4(C)[C@]3(C)CC[C@@H]12 [glycyrrhizin] | ≤ 15 min | –
2 | CN(C)c1ccc2nc3ccc(=[N+](C)C)cc-3sc2c1 [methylene blue solution, methylene blue] | – | present in the largest amount in Mediate 1

Source: patent US20260130951A1, “GLYCYRRHIZIN-GLYCOL CHITOSAN CONJUGATE-COATED IRON OXIDE NANOPARTICLES AND USE THEREOF” (Industry-University Cooperation Foundation Hanyang …, priority 2018, published 2026)
